Reference: US10233188B2, “CDK2/4/6 inhibitors” (priority 2016, dated 2019)

Legend:
[1] = molecular target: CDK6/Cyclin D1 (Homo sapiens (Human), UniProt Q00534); experiment: biochemical; conditions: CDK6_Ki (nM), non-phosphorylated CDK6/Cyclin D1, 2 mM ATP, Morrison fit
[2] = molecular target: CDK2/Cyclin E1 (Homo sapiens (Human), UniProt P24941); experiment: biochemical; conditions: CDK2_Ki (nM), phosphorylated CDK2/Cyclin E1, 150 μM ATP, Morrison tight-binding fit
Method: The assay was initiated with the addition of ATP, following a fifteen minutes pre-incubation of enzyme and inhibitor at room temperature in the reaction mixture. The reaction was stopped after 45 minutes at room temperature by the addition of 50 μL of 80 mM EDTA, pH 7.5.

Chain of CDK6/Cyclin D1 (Q00534 whole entry): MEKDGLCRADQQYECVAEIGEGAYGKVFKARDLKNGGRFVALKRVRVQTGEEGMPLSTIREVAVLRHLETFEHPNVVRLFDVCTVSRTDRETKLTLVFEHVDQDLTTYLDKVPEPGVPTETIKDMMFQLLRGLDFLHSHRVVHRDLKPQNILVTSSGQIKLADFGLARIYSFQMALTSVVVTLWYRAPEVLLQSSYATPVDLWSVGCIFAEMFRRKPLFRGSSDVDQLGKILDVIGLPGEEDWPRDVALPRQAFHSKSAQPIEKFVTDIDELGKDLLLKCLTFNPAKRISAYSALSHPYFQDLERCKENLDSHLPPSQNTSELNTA
Chain of CDK6/Cyclin D1 (P24385 whole entry partner): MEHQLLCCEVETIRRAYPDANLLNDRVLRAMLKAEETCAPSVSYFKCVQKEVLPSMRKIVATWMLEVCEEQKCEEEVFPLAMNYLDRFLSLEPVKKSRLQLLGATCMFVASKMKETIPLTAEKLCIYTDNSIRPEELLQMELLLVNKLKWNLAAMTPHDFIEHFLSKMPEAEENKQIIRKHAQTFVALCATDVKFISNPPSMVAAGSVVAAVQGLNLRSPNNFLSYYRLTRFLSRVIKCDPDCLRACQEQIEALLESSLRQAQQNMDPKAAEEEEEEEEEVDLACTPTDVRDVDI

| SMILES | Ki [1] [nM] | Ki [2] [nM] |
| --- | --- | --- |
| COCCS(=O)(=O)N1CCC(Nc2ncc3cc(C)c(=O)n([C@H]4CCC[C@]4(C)O)c3n2)CC1 (single isomer, unassigned) [Example 115, (+)-8-[(1R*,2R*)-2-hydroxy-2-methylcyclopentyl]-2-({1-[(2-methoxyethyl)sulfonyl]piperidin-4-yl}amino)-6-methylpyrido[2,3-d]pyrimidin-7(8H)-one] | 3.17 | 2.39 |
| COCCS(=O)(=O)N1CCC(Nc2ncc3cc(C)c(=O)n([C@@H]4CCC[C@@]4(C)O)c3n2)CC1 (single isomer, unassigned) [Example 114, (−)-8-[(1R*,2R*)-2-hydroxy-2-methylcyclopentyl]-2-({1-[(2-methoxyethyl)sulfonyl]piperidin-4-yl}amino)-6-methylpyrido[2,3-d]pyrimidin-7(8H)-one] | 0.15 | 0.17 |
| CCS(=O)(=O)N1CCC(Nc2ncc3cc(C)c(=O)n([C@@H]4CCC[C@@]4(C)O)c3n2)CC1 (single isomer, unassigned) [Example 110, (−)-2-{[1-(ethylsulfonyl)piperidin-4-yl]amino}-8-[(1R*,2R*)-2-hydroxy-2-methylcyclopentyl]-6-methylpyrido[2,3-d]pyrimidin-7(8H)-one] | 0.28 | 0.1 |
| COC(C)(C)CNS(=O)(=O)N1CCC(Nc2ncc3ccc(=O)n([C@H]4CCC[C@]4(C)O)c3n2)CC1 (single isomer, unassigned) [Example 61, (+)-4-({8-[(1R*,2R*)-2-hydroxy-2-methylcyclopentyl]-7-oxo-7,8-dihydropyrido[2,3-d]pyrimidin-2-yl}amino)-N-(2-methoxy-2-methylpropyl)piperidine-1-sulfonamide] | 19.7 | 4.55 |

The next lines start with the values.

| Ki [1] [nM] | Ki [2] [nM] | SMILES |
| --- | --- | --- |
| 1.53 | 0.51 | C[C@@H]1[C@H](O)CC[C@H]1n1c(=O)c(Cl)cc2cnc(NC3CCN(S(C)(=O)=O)CC3)nc21 (single isomer, unassigned) [Example 203, (−)-6-chloro-8-[(1R*,2S*,3R*)-3-hydroxy-2-methylcyclopentyl]-2-{[1-(methylsulfonyl)piperidin-4-yl]amino}pyrido[2,3-d]pyrimidin-7(8H)-one] |
| 28.9 | 3.76 | C[C@]1(O)CCC[C@@H]1n1c(=O)c(CC(N)=O)cc2cnc(NC3CCN(S(C)(=O)=O)CC3)nc21 (single isomer, unassigned) [Example 180, (+)-2-(8-[(1R*,2R*)-2-hydroxy-2-methylcyclopentyl]-2-{[1-(methylsulfonyl)piperidin-4-yl]amino}-7-oxo-7,8-dihydropyrido[2,3-d]pyrimidin-6-yl)acetamide] |
| 0.55 | 1.88 | COCc1cc2cnc(NC3CCN(S(C)(=O)=O)CC3)nc2n(C2CCCC2)c1=O [Example 142, 8-cyclopentyl-6-(methoxymethyl)-2-{[1-(methylsulfonyl)piperidin-4-yl]amino}pyrido[2,3-d]pyrimidin-7(8H)-one] |
| 18.3 | 7.46 | CNS(=O)(=O)N1CCC(Nc2ncc3ccc(=O)n([C@@H]4C[C@@H](O)CC[C@H]4F)c3n2)CC1 (single isomer, unassigned) [Example 220, (−)-4-({8-[(1S*,2S*,5R*)-2-fluoro-5-hydroxycyclohexyl]-7-oxo-7,8-dihydropyrido[2,3-d]pyrimidin-2-yl}amino)-N-methylpiperidine-1-sulfonamide] |
| 0.18 | 0.51 | C[C@@H]1[C@H](O)CC[C@H]1n1c(=O)c(C(F)F)cc2cnc(NC3CCN(S(C)(=O)=O)CC3)nc21 (single isomer, unassigned) [Example 204, (−)-6-(difluoromethyl)-8-[(1R*,2S*,3R*)-3-hydroxy-2-methylcyclopentyl]-2-{[1-(methylsulfonyl)piperidin-4-yl]amino}pyrido[2,3-d]pyrimidin-7(8H)-one] |
